The source of these data is patent US9586896B2, “Nitroxyl donors with improved therapeutic index” (Cardioxyl Pharmaceuticals, Inc., priority 2013, dated 2017).

In brackets after ≈: the same amount, converted by molar mass. Read-outs that look alike come from different tables or passages of the source.

Data set [1] has as its system dogs. Kind of data set: 14-day continuous infusion tolerance study of CXL-1020 in dogs. The class given is in vivo. As for the experimental part: During in vivo trials of the nitroxyl donor, CXL-1020 (N-hydroxy-2-methanesulfonylbenzene-1-sulfonamide), a 14-day study was conducted to evaluate tolerance in dogs treated with continuous infusions of CXL-1020 at dose rates of up to 90 μg/kg/min. […] To further investigate this undesirable side-effect, a follow-up 14-day study in dogs was initiated.

In data set [2] the test system is dogs. Nature of the data set: 72-hour continuous infusion investigative studies of CXL-1020 in dogs (implanted catheter). The class given is in vivo. As to conditions: 72-hour infusion. As for the experimental part:
To determine the cause of the inflammation and hind limb swelling, a series of 72-hour continuous infusion investigative studies were conducted over the following 6 months. […] The first site of inflammation, the catheter insertion site, caused the dog hind limb swelling and inflammation observed in the early-terminated follow-up study. Increasing infusate pH from 4 to 6 decreased inflammation, improving the inflammatory profile by approximately 3-fold.

The subject of a further data set is healthy volunteers. Kind of data set: 24-hour continuous infusion dose escalation study of CXL-1020 in healthy volunteers. The class given is in vivo, humans. Particulars: forearm vein infusion. As to the method: To determine whether a local phlebitis would occur in humans upon longer duration dosing, a longer duration study was conducted in healthy volunteers. The longer duration study included a dose escalation study in which cohorts of 10 volunteers were to be sequentially administered a 24-hour continuous infusion of CXL-1020 at the dose rates of 10, 20, and 30 μg/kg/min with a safety assessment between each cohort. Each cohort consisted of 2 placebo and 8 active treatments with a sentinel pair of 1 active and 1 placebo followed by the main group of 1 placebo and 7 active treatments. The infusion was via a percutaneous catheter inserted into a forearm vein. The catheter was switched to the contralateral arm after 12 hours of infusion.

Data set [3] is described as follows: In vitro stability (half-life) in dog plasma. Particulars: male, dog plasma pH 7.4, anticoagulant, 37° C., read-out: T1/2 (minutes) Dog. The class given is in vitro ADME. As for the experimental part:
Compound (1), compound (2), and CXL-1020 were tested for their stability in plasma. The assay system comprised (i) PBS, or plasma from rat, dog or human (at least 3 donors, male, pooled) at pH 7.4, and (ii) for tests conducted in plasma, an anticoagulant (sodium heparin or sodium citrate). Each test compound (5 μM) was incubated in PBS or plasma at 37° C. on a THERMOMIXER® with shaking Three samples (n=3) were taken at each of seven sampling time points: 0, 10, 30, 60, 90, 180 and 360 minutes. The samples were immediately combined with 3 volumes (i.e., 3 times the volume of PBS or plasma) of acetonitrile containing 1% formic acid and an internal standard to terminate the reaction. AB SCIEX API 3000 LC-MS/MS analysis of the test compounds was performed without a standard curve. Half-lives (T1/2) of the test compounds were determined from graphs of the percent remaining values using the peak area response ratio.

Data set [4] is described as follows: Solubility by visual assessment in pH 4 buffer. Particulars: pH 4 citrate buffer, pH 4, aqueous buffer, thermodynamic from solid, shaken 5 minutes. The class given is physicochemical. As to the method: Initially, the solubilities of the compounds of formula (1) and formula (2) were measured by visual assessment at 100 μg/mL and 1000 μg/mL in a pH 4 buffer. The buffer was prepared by mixing 660 mL of Solution A (10.5023 g of citric acid dissolved in 1 L of water) and […] of Solution B (14.7010 g of sodium citrate tribasic dihydrate dissolved in 1 L of water). The pH of the buffer was 3.98 as measured by pH meter. Each compound was shaken for about 5 minutes in the pH 4 buffer solution prepared above at two concentration points (100 μg/mL and 1000 μg/mL) and the solubility was observed visually.

Data set [5] can be described thus: Solubility in water in the absence of excipients. As to conditions: for solubility thermodynamic: thermodynamic from solid, read-out: equilibrium solubility in water. The class given is physicochemical. As for the experimental part:
Additionally, a sample of the compound of formula (1) was prepared in water to determine the approximate solubility of the compound in the absence of excipients (e.g., CAPTISOL®). A concentration of approximately 300 mg/mL was achieved, not accounting for the volume contribution of the compound. The pH of the sample was determined to be 2.8, which was adjusted to the target of 4.0 using 0.1 N NaOH. Upon pH adjustment, precipitation of a small amount of solid was observed. […] A similar analysis was performed for the compound of formula (2). The compound of formula (2) has a solubility of approximately 10 mg/mL.

Data set [6] has as its system heart failure canines (microembolization model). Kind of data set: Hemodynamic efficacy in canine microembolization heart failure model. The class given is in vivo, mongrel dogs. As to conditions: 3 or 10 μg/kg/min infusion, FIG. 3. As to the method:
Heart failure was produced using healthy, conditioned, purpose-bred mongrel dogs (20-26 kg) using a sequential microembolization model. Coronary microembolization was performed until LV-ejection fraction (determined angiographically under anesthesia) was approximately 30% or lower. Two weeks were then provided after the last microembolization to ensure stabilization of each animal prior to initiating experiments.
An initial dose-finding study (2-100 μg/kg/min for 40 min) was performed in 3 dogs to identify therapeutically relevant doses of a compound of formula (1). […] Only one dose was studied on a given day, the other at least one-week later, and the order randomized. […]
LV end-systolic volume (ESV) and end-diastolic volumes (EDV) were calculated from ventriculograms using the area-length method. […] LV fractional area of shortening (FAS) was measured from LV short axis view at the level of papillary muscles obtained from 2-dimensional echocardiograms. Measured indexes of LV diastolic function included deceleration time of mitral inflow velocity (DT), ratio of the integral of early mitral inflow velocity (Ei) to velocity during atrial contraction (Ai) (Ei/Ai) and LV end-diastolic circumferential wall stress (EDWS).
Measurements of myocardial oxygen consumption were performed at baseline and at 4 hours after 10 μg/kg/min infusion. […] Oxygen content was determined with a hemoximeter. […]

Where [7] appears, read: 100 μg/mL, read-out: Solubility (100 μg/mL).
Where [8] appears, read: 1000 μg/mL, read-out: Solubility (1000 μg/mL).

Consider `CS(=O)(=O)c1ccccc1S(=O)(=O)NO` [CXL-1020, N-hydroxy-2-methanesulfonylbenzene-1-sulfonamide], for which the dose rate tolerated with dogs [1] turned out to be 60 µg/kg/min. In the data set with dogs [2], the “improvement of the inflammatory profile on increasing infusate pH from 4 to 6” value was “approximately 3 fold”. In addition, the “dose rates at which significant undesirable side effects were still demonstrated” value in the data set on dogs [2] (infusate pH 6) is recorded as “greater than or equal to 3 μg/kg/min”. Also, the “dose rates causing clinical pathology changes consistent with an inflammatory process” value in the data set with dogs [2] (pH 4 formulation, 1:1 molar CXL-1020:CAPTISOL in 5% dextrose) was “greater than or equal to 0.03 μg/kg/min”. Also, the “tolerability at 10 μg/kg/min for 24-hours” value in the data set with healthy volunteers (10 μg/kg/min) is recorded as “well tolerated”. Moreover, the “findings at 20 μg/kg/min for 24-hours” value in the data set with healthy volunteers (20 μg/kg/min) is “mild findings (either clinical signs and/or changes in clinical pathology) in all 8 subjects consistent with infusion site phlebitis”.
Regarding `Cc1ccc(S(=O)(=O)NO)o1` [Compound (1), N-Hydroxy-5-methylfuran-2-sulfonamide], the half-life at 5 μM in data set [3] is 25 min. Besides, the solubility at 5 min in data set [4] (setting [7]) was greater than 100 µg/mL; in data set [4] (setting [8]), greater than 1000 µg/mL. In data set [5] (approximately 300 mg/mL in water before pH adjustment), the “pH of the sample in water” value is 2.8. The solubility thermodynamic in data set [5] (water, no excipients) is greater than 100000 µg/mL. Besides, the solubility in data set [5] (water without excipients, pH 2.8, thermodynamic from solid, water, no excipients, not accounting for the volume contribution of the compound, read-out: concentration achieved in water) was no less than 300 mg/mL. Also, the “observed solution concentration by HPLC” value in data set [5] (water, after pH adjustment to 4.0 with 0.1 N NaOH) came to 268 mg/mL. The “hemodynamic activity relative to CXL-1020” value in data set [6] was “comparable hemodynamic activity to CXL-1020”.
Turning to `CS(=O)(=O)c1cccc(S(=O)(=O)NO)c1` [(2), N-Hydroxy-3-methanesulfonylbenzene-1-sulfonamide], the half-life at 5 μM in data set [3] worked out at 33 min. Moreover, the solubility at 5 min in data set [4] (setting [7]) is greater than 100 µg/mL; in data set [4] (setting [8]), greater than 1000 µg/mL. Further, the solubility thermodynamic in data set [5] (water, no excipients) is roughly 10000 µg/mL (≈ 39.8 mM).
